For one assay, the target named is human STING (Homo sapiens, UniProt Q86WV6). Nature of the assay: Fluorescence Thermal Shift assay (hSTING FTS binding assay).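 Further: STING preincubated with compound for 20 min in HEPES NaCl buffer pH 7.5.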 Conditions: ΔTm, STING 0.1 mg/mL, SyproOrange, 25 to 99° C. The protocol: Fluorescence Thermal Shift Assay Compounds of the present invention were tested for binding to human STING in Fluorescence Thermal Shift assay. […] Final STING concentration was 0.1 mg/mL. Thermal unfolding was performed in Real-Time PCR QuantStudio 6 Flex System (Applied Biosystems), from 25 to 99° C., with continuous ramp mode and ramp rate 0.033° C./s. The data were analyzed using Protein Thermal Shift Software (ThermoFisher).
human STING, sequence (Q86WV6 whole entry H232R): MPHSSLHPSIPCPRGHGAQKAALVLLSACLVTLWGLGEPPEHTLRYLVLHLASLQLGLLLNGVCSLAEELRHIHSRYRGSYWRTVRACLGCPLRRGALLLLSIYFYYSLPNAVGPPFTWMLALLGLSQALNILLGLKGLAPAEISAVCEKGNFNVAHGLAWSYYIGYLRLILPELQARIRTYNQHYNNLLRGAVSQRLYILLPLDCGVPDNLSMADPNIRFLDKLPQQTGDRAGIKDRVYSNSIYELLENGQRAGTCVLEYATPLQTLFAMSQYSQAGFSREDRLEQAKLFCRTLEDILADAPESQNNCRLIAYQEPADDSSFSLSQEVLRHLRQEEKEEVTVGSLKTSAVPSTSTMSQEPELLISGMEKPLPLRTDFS

Assay [1] deals with CT26 murine colon carcinoma allografts. The experiment in a line: In vivo anti-tumor efficacy, CT26 allograft. The conditions noted are these: once every fifth day on three occasions; for response of CT26 tumors to the treatment: intravenously, all dose levels. Further details: species or system female Balb/C mice. The protocol: In Vivo Anti-Tumor Efficacy The efficacy of Example 4, Example 31 and Example 57 was evaluated in established CT26 murine colon carcinoma allografts in female Balb/C mice. Compounds were formulated in 5% ethanol with 10% Captisol in PBS and administered intravenously, once every fifth day on three occasions. The solution was prepared fresh prior to each administration. […] By the end of the study there was one complete response among animals treated at 10 mg/kg of Example 4. […] By the end of the study, on day 43, there was one complete response recorded in group treated at 20 mg/kg of Example 57.

Assay [2] relates to NF-κB pathway in THP-1 dual cells. Nature of the assay: THP-1 Dual reporter assay, NF-κB pathway (SEAP). It is filed as cell-based. Conditions: Homo sapiens, THP1-Dual, 18 h stimulation, absorbance at 630 or 655 nm, read-out: THP1 Dual EC50 (μM) NFkB. The protocol:
(§1) THP-1 Dual Reporter Assay
(§2) Compounds of the present invention were tested for their activity using THP-1 dual cells (Invivogen, cat no. thpd-nfis) allowing for simultaneous study of NF-κB pathway and the interferon regulatory factor (IRF) pathway. THP-1 dual cells contain luciferase reporter gene under the control of an ISG54 (interferon-stimulated gene) minimal promoter in conjunction with five interferon-stimulated response elements and a secreted embryonic alkaline phosphatase reporter gene under the control an IFN (interferon)-β minimal promoter fused to five copies of the NF-κB consensus transcriptional response element with three copies of the c-Rel binding site. Following 18 h of stimulation with STING agonist, medium was collected and transferred onto fresh cell culture plate. To verify activity of the IRF pathway, luminescence activity was measured with standard laboratory plate reader immediately after addition 10 μl of the medium to 40 or 50 μl of luminescence reagent (Invivogen, cat. No. rep-qlc2). To verify activity of NF-κB pathway, 10 or 20 μl of the medium was mixed with 80 μl of a detection medium (Invivogen, cat. No. rep-qb2) and incubated for 1 or 2 hours at 37° C. in a humidified atmosphere containing 5% CO2. Next, absorbance at 630 or 655 nm was recorded using standard laboratory plate reader.
In general terms: In a reporter assay the amount or activity of a reporter protein is the signal.

In assay [3] the test system is interferon regulatory factor (IRF) pathway in THP-1 dual cells. The experiment in a line: THP-1 Dual reporter assay, IRF pathway (luciferase). In kind it is cell-based. The conditions noted are these: Homo sapiens, THP1-Dual, 18 h stimulation, luminescence. The protocol:
as §1, §2

Each structure is given as a SMILES string. Where only a bound is given, the exact number is not on record here.

Consider `Cc1ccc(N2CCC[C@H](N(Cc3ccnc(C)c3)Cc3cn(C4CC4)c4cc(N5CC[C@H](N)C(F)(F)C5)c(F)cc4c3=O)C2)cn1.Cl` (single isomer, unassigned) [Example 57], for which the “hSTING FTS binding assay (ΔT ° C.)” value at human STING is reported as “+++ (ΔTm≥20° C.)”. Besides, the “tumor growth effect compared to the control group” value is “minimal tumor growth delay” in assay [1] (5 mg/kg intravenously), “moderately efficacious” in assay [1] (10 mg/kg intravenously) and “full efficacious” in assay [1] (20 mg/kg intravenously). Also, the “complete responses by the end of the study” value (from here on “complete responses by the end”) in assay [1] (20 mg/kg intravenously, day 43) is “one”. For the same molecule, the “dose dependence of the tumor response” value in assay [1] (5, 10 and 20 mg/kg intravenously) is on record as “dose dependent manner”. The “response of CT26 tumors to the treatment” value in assay [1] is given as “responded prominently”.

`COc1cc(CN(Cc2cn(C3CC3)c3cc(F)c(F)cc3c2=O)[C@H]2CCCN(c3ccc(N)nc3)C2)ccn1.Cl` [Example 4, 3-({[(3S)-1-(6-Aminopyridin-3-yl)piperidin-3-yl][(2-methoxypyridin-4-yl)methyl]amino}methyl)-1-cyclopropyl-6,7-difluoro-1,4-dihydroquinolin-4-one Hydrochloride]: the “hSTING FTS binding assay (ΔT ° C.)” value at human STING is listed as “+++ (ΔTm≥20° C.)”. In assay [1] (7 mg/kg intravenously), the “tumor growth effect compared to the control group” value is “efficacious and caused tumor growth delay or significant decrease of the tumor size”. Further, in assay [1] (10 mg/kg intravenously), the “complete responses by the end” value is “one”; the “tumor growth effect compared to the control group” value is “efficacious and caused tumor growth delay or significant decrease of the tumor size”. Further, the “response of CT26 tumors to the treatment” value in assay [1] is given as “responded prominently”.

Turning to `Cc1ccc(N2CCC[C@H](N(Cc3ccnc(C)c3)Cc3cn(CCN)c4ccccc4c3=O)C2)cn1` [Example 18, 1-(2-Aminoethyl)-3-({[(3S)-1-(6-methylpyridin-3-yl)piperidin-3-yl][(2-methylpyridin-4-yl)methyl]amino}methyl)-1,4-dihydroquinolin-4-one], the EC50 in assay [2] and in assay [3] was 1 to 10 µM throughout. The “hSTING FTS binding assay (ΔT ° C.)” value at human STING is “+ (ΔTm≤10° C.)”.

In the case of `Cc1cc(CN(Cc2cn(C(C)C)c3cc(F)c(F)cc3c2=O)[C@H]2CCCN(c3ccc(N)nc3)C2)ccn1.Cl` [Example 24, 3-({[(3S)-1-(6-aminopyridin-3-yl)piperidin-3-yl][(2-methylpyridin-4-yl)methyl]amino}methyl)-6,7-difluoro-1-(propan-2-yl)-1,4-dihydroquinolin-4-one Hydrochloride], the EC50 in assay [2] and in assay [3] was ≤ 1 µM in each case. Also, at human STING, the “hSTING FTS binding assay (ΔT ° C.)” value is “+++ (ΔTm≥20° C.)”.

For the molecule `Cc1ccc(N2CCC[C@H](N(Cc3ccnc(C)c3)Cc3cn(C4CC4)c4cc(NC(=O)CN)c(F)cc4c3=O)C2)cn1` [Example 25, 2-amino-N-[1-cyclopropyl-6-fluoro-3-({[(3S)-1-(6-methylpyridin-3-yl)piperidin-3-yl][(2-methylpyridin-4-yl)methyl]amino}methyl)-4-oxo-1,4-dihydroquinolin-7-yl]acetamide], the EC50 in assay [2] and in assay [3] was ≤ 1 µM in each case. Further, the “hSTING FTS binding assay (ΔT ° C.)” value at human STING is “+++ (ΔTm≥20° C.)”.

Consider `Cc1ccc(N2CCC[C@H](N(Cc3ccnc(C)c3)Cc3cn(C4CC4)c4cc(N5CCC[C@H](O)C5)c(F)cc4c3=O)C2)cn1.Cl` [Example 31, 1-cyclopropyl-6-fluoro-7-[(3S)-3-hydroxypiperidin-1-yl]-3-({[(3S)-1-(6-methylpyridin-3-yl)piperidin-3-yl][(2-methylpyridin-4-yl)methyl]amino}methyl)-1,4-dihydroquinolin-4-one Hydrochloride], for which, at human STING, the “hSTING FTS binding assay (ΔT ° C.)” value is listed as “+++ (ΔTm≥20° C.)”. For the same molecule, the “tumor growth effect compared to the control group” value is on record as “slight tumor growth delay” in assay [1] (7 mg/kg intravenously), “prominently efficacious” in assay [1] (15 mg/kg intravenously) and “prominently efficacious” in assay [1] (30 mg/kg intravenously). Also, the “complete responses by the end” value in assay [1] (30 mg/kg intravenously, day 43) is “two”. In addition, in assay [1], the “response of CT26 tumors to the treatment” value is given as “responded prominently”.

On to `Cc1ccc(N2CCC[C@H](N(Cc3ccnc(C)c3)Cc3cn(C4CC4)c4cc(N5CC[C@@H](O)C5)ccc4c3=O)C2)cn1` [Example 45, 1-cyclopropyl-7-[(3R)-3-hydroxypyrrolidin-1-yl]-3-({[(3S)-1-(6-methylpyridin-3-yl)piperidin-3-yl][(2-methylpyridin-4-yl)methyl]amino}methyl)-1,4-dihydroquinolin-4-one], for which the EC50 in assay [2] and in assay [3] was ≤ 1 µM throughout. Besides, the “hSTING FTS binding assay (ΔT ° C.)” value at human STING is on record as “+++ (ΔTm≥20° C.)”.

In the case of `Cc1cc(CN(Cc2cn(C)c3cc(N4CCC(C(=O)O)CC4)ccc3c2=O)[C@H]2CCCN(c3cccnc3)C2)ccn1` [Example 46, 1-[1-methyl-3-({[(2-methylpyridin-4-yl)methyl][(3S)-1-(pyridin-3-yl)piperidin-3-yl]amino}methyl)-4-oxo-1,4-dihydroquinolin-7-yl]piperidine-4-carboxylic Acid], the EC50 in assay [2] and in assay [3] was ≥ 10 µM throughout. Further, the “hSTING FTS binding assay (ΔT ° C.)” value on human STING is “++ (10<ΔTm<20° C.)”.

As to `Cc1ccc(N2CCC[C@H](N(Cc3ccnc(C)c3)Cc3cn(C4CC4)c4cc(OCCO)c(F)cc4c3=O)C2)cn1` [Example 47, 1-Cyclopropyl-6-fluoro-7-(2-hydroxyethoxy)-3-({[(3S)-1-(6-methylpyridin-3-yl)piperidin-3-yl][(2-methylpyridin-4-yl)methyl]amino}methyl)-1,4-dihydroquinolin-4-one], the EC50 in assay [2] and in assay [3] was ≤ 1 µM in each case. Besides, at human STING, the “hSTING FTS binding assay (ΔT ° C.)” value was “+++ (ΔTm≥20° C.)”.

Regarding `Cc1cc(CN(Cc2cn(C3CC3)c3cc(OCCO)c(F)cc3c2=O)[C@H]2CCCN(c3cnccn3)C2)ccn1.Cl` [Example 85, 1-cyclopropyl-6-fluoro-7-(2-hydroxyethoxy)-3-({[(2-methylpyridin-4-yl)methyl][(3S)-1-(pyrazin-2-yl)piperidin-3-yl]amino}methyl)-1,4-dihydroquinolin-4-one Hydrochloride], the EC50 in assay [2] and in assay [3] was ≤ 1 µM throughout. In addition, the “hSTING FTS binding assay (ΔT ° C.)” value at human STING is “++ (10<ΔTm<20° C.)”.

The record behind these values is US12655124B2, “Heterocyclic compounds as modulators of stimulator of interferon genes (STING)” (RYVU THERAPEUTICS S.A., priority 2019, dated 2026).
